Key:
HEK293sieSTAT3(wt) [1] = test: drug sensitivity score (DSS), cytotoxicity CellTox Green (DSS (dimensionless)); higher = more cytotoxic; extreme values may be limits of the assay; conditions: 72 h; STAT3 variant: wild type
Outline: (§1)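 In 384-well plates with acoustically pre-plated compounds (5 concentrations, 10-fold dilutions), 20 μl of HEK293 cells at 100,000 cells/ml were added; the cells overexpressed wild-type or mutant STAT3 and carried a STAT3-dependent luciferase reporter. Incubation lasted 72 hours at 37°C and 5% CO2 before sequential CellTox Green (485/520 nm) and CellTiter-Glo reads on a PHERAstar FS. After normalisation to negative and positive control wells, Breeze was used to derive a drug sensitivity score from the dose-response curve area.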

HEK293sieSTAT3(Y640F) [2] = test: as above; conditions: 72 h; STAT3 variant: Y640F (constitutively active)
Outline: as §1

HEK293sieSTAT3(wt) [3] = test: drug sensitivity score (DSS), viability CellTiter-Glo (DSS (dimensionless)); higher = more growth inhibition; extreme values may be limits of the assay; conditions: 72 h; STAT3 variant: wild type
Outline: as §1

HEK293sieSTAT3(Y640F) [4] = test: as above; conditions: 72 h; STAT3 variant: Y640F (constitutively active)
Outline: as §1

Nc1nc2[nH]cc(CCc3ccc(C(=O)N[C@@H](CCC(=O)O)C(=O)O)cc3)c2c(=O)[nH]1 [Pemetrexed] (top concentration tested 10000 nM)
drug sensitivity score (HEK293sieSTAT3(wt) [1]): 2.93 | drug sensitivity score (HEK293sieSTAT3(Y640F) [2]): 0 | drug sensitivity score (HEK293sieSTAT3(wt) [3]): 13.3 | drug sensitivity score (HEK293sieSTAT3(Y640F) [4]): 12.9

OC[C@H]1O[C@@H](n2cnc3c2N=CNC[C@H]3O)C[C@@H]1O [Pentostatin] (top concentration tested 10000 nM)
drug sensitivity score (HEK293sieSTAT3(wt) [1]): 0 | drug sensitivity score (HEK293sieSTAT3(Y640F) [2]): 0 | drug sensitivity score (HEK293sieSTAT3(wt) [3]): 1.4 | drug sensitivity score (HEK293sieSTAT3(Y640F) [4]): 0.02

CCCCCCCCCCCCCCCCCCOP(=O)([O-])OC1CC[N+](C)(C)CC1 [Perifosine] (top concentration tested 2500 nM)
drug sensitivity score (HEK293sieSTAT3(wt) [1]): 0.08 | drug sensitivity score (HEK293sieSTAT3(Y640F) [2]): 0 | drug sensitivity score (HEK293sieSTAT3(wt) [3]): 2.19 | drug sensitivity score (HEK293sieSTAT3(Y640F) [4]): 5.21

NS(=O)(=O)OC[C@@H]1C[C@@H](n2ccc3c(N[C@H]4CCc5ccccc54)ncnc32)C[C@@H]1O [Pevonedistat] (top concentration tested 10000 nM)
drug sensitivity score (HEK293sieSTAT3(wt) [1]): 7.13 | drug sensitivity score (HEK293sieSTAT3(Y640F) [2]): 3.23 | drug sensitivity score (HEK293sieSTAT3(wt) [3]): 23.6 | drug sensitivity score (HEK293sieSTAT3(Y640F) [4]): 22.3

FC(F)(F)c1ccc(CNc2ccc(Cc3c[nH]c4ncc(Cl)cc34)cn2)cn1 [Pexidartinib] (top concentration tested 10000 nM)
drug sensitivity score (HEK293sieSTAT3(wt) [1]): 0 | drug sensitivity score (HEK293sieSTAT3(Y640F) [2]): 0 | drug sensitivity score (HEK293sieSTAT3(wt) [3]): 2.35 | drug sensitivity score (HEK293sieSTAT3(Y640F) [4]): 3.45

CS(=O)(=O)N1CCN(Cc2cc3nc(-c4cccc5[nH]ncc45)nc(N4CCOCC4)c3s2)CC1 [Pictilisib] (top concentration tested 10000 nM)
drug sensitivity score (HEK293sieSTAT3(wt) [1]): 7.57 | drug sensitivity score (HEK293sieSTAT3(Y640F) [2]): 1.36 | drug sensitivity score (HEK293sieSTAT3(wt) [3]): 15.7 | drug sensitivity score (HEK293sieSTAT3(Y640F) [4]): 12.7

COc1ccc(Cl)c(Nc2nc3ccccc3nc2NS(=O)(=O)c2cccc(NC(=O)C(C)(C)N)c2)c1 [Pilaralisib] (top concentration tested 2500 nM)
drug sensitivity score (HEK293sieSTAT3(wt) [1]): 0 | drug sensitivity score (HEK293sieSTAT3(Y640F) [2]): 0 | drug sensitivity score (HEK293sieSTAT3(wt) [3]): 3.92 | drug sensitivity score (HEK293sieSTAT3(Y640F) [4]): 6.22

CC[C@@H]1C(=O)OC[C@@H]1Cc1cncn1C [Pilocarpine] (top concentration tested 40000 nM)
drug sensitivity score (HEK293sieSTAT3(wt) [1]): 0 | drug sensitivity score (HEK293sieSTAT3(Y640F) [2]): 0 | drug sensitivity score (HEK293sieSTAT3(wt) [3]): 1.32 | drug sensitivity score (HEK293sieSTAT3(Y640F) [4]): 0.59

O=C(NC[C@H](O)CO)c1ccncc1Nc1ccc(I)cc1F [Pimasertib] (top concentration tested 10000 nM)
drug sensitivity score (HEK293sieSTAT3(wt) [1]): 0 | drug sensitivity score (HEK293sieSTAT3(Y640F) [2]): 0 | drug sensitivity score (HEK293sieSTAT3(wt) [3]): 0 | drug sensitivity score (HEK293sieSTAT3(Y640F) [4]): 0.57

CC(C)N(C[C@H]1O[C@@H](n2cnc3c(N)ncnc32)[C@H](O)[C@@H]1O)[C@H]1C[C@@H](CCc2nc3cc(C(C)(C)C)ccc3[nH]2)C1 [Pinometostat] (top concentration tested 1000 nM)
drug sensitivity score (HEK293sieSTAT3(wt) [1]): 0 | drug sensitivity score (HEK293sieSTAT3(Y640F) [2]): 0.46 | drug sensitivity score (HEK293sieSTAT3(wt) [3]): 0 | drug sensitivity score (HEK293sieSTAT3(Y640F) [4]): 0.69

O=C(CCBr)N1CCN(C(=O)CCBr)CC1 [Pipobroman] (top concentration tested 10000 nM)
drug sensitivity score (HEK293sieSTAT3(wt) [1]): 0 | drug sensitivity score (HEK293sieSTAT3(Y640F) [2]): 0 | drug sensitivity score (HEK293sieSTAT3(wt) [3]): 1.43 | drug sensitivity score (HEK293sieSTAT3(Y640F) [4]): 6.86

NCCNc1ccc(NCCN)c2c1C(=O)c1ccncc1C2=O [Pixantrone] (top concentration tested 10000 nM)
drug sensitivity score (HEK293sieSTAT3(wt) [1]): 0 | drug sensitivity score (HEK293sieSTAT3(Y640F) [2]): 0 | drug sensitivity score (HEK293sieSTAT3(wt) [3]): 0 | drug sensitivity score (HEK293sieSTAT3(Y640F) [4]): 1.82

c1cc(CN2CCCNCCNCCCNCC2)ccc1CN1CCCNCCNCCCNCC1 [Plerixafor] (top concentration tested 10000 nM)
drug sensitivity score (HEK293sieSTAT3(wt) [1]): 0.25 | drug sensitivity score (HEK293sieSTAT3(Y640F) [2]): 0 | drug sensitivity score (HEK293sieSTAT3(wt) [3]): 0 | drug sensitivity score (HEK293sieSTAT3(Y640F) [4]): 0

CO[C@H](C(=O)[C@@H](O)[C@@H](C)O)[C@@H]1Cc2cc3cc(O[C@H]4C[C@@H](O[C@@H]5C[C@@H](O)[C@H](O)[C@@H](C)O5)[C@H](O)[C@@H](C)O4)c(C)c(O)c3c(O)c2C(=O)[C@H]1O[C@H]1C[C@@H](O[C@@H]2C[C@@H](O)[C@@H](O[C@@H]3C[C@](C)(O)[C@H](O)[C@@H](C)O3)[C@@H](C)O2)[C@H](O)[C@@H](C)O1 [Plicamycin] (top concentration tested 10000 nM)
drug sensitivity score (HEK293sieSTAT3(wt) [1]): 7.29 | drug sensitivity score (HEK293sieSTAT3(Y640F) [2]): 6.46 | drug sensitivity score (HEK293sieSTAT3(wt) [3]): 18.7 | drug sensitivity score (HEK293sieSTAT3(Y640F) [4]): 17.8

Nc1cccc2c1C(=O)N(C1CCC(=O)NC1=O)C2=O (configuration not stated) [Pomalidomide] (top concentration tested 10000 nM)
drug sensitivity score (HEK293sieSTAT3(wt) [1]): 0 | drug sensitivity score (HEK293sieSTAT3(Y640F) [2]): 0 | drug sensitivity score (HEK293sieSTAT3(wt) [3]): 0 | drug sensitivity score (HEK293sieSTAT3(Y640F) [4]): 0

C=CC(=O)N1CCC(Oc2cc3c(Nc4ccc(Cl)c(Cl)c4F)ncnc3cc2OC)CC1 [Poziotinib] (top concentration tested 1000 nM)
drug sensitivity score (HEK293sieSTAT3(wt) [1]): 0 | drug sensitivity score (HEK293sieSTAT3(Y640F) [2]): 0 | drug sensitivity score (HEK293sieSTAT3(wt) [3]): 0 | drug sensitivity score (HEK293sieSTAT3(Y640F) [4]): 1.53

CCCCc1nc2cc(/C=C/C(=O)NO)ccc2n1CCN(CC)CC [Pracinostat] (top concentration tested 10000 nM)
drug sensitivity score (HEK293sieSTAT3(wt) [1]): 14.5 | drug sensitivity score (HEK293sieSTAT3(Y640F) [2]): 9.85 | drug sensitivity score (HEK293sieSTAT3(wt) [3]): 22 | drug sensitivity score (HEK293sieSTAT3(Y640F) [4]): 20.7

CC[C@H](C)C(=O)O[C@H]1C[C@H](O)C=C2C=C[C@H](C)[C@H](CC[C@@H](O)C[C@@H](O)CC(=O)O)[C@H]21 [Pravastatin] (top concentration tested 10000 nM)
drug sensitivity score (HEK293sieSTAT3(wt) [1]): 0 | drug sensitivity score (HEK293sieSTAT3(Y640F) [2]): 0.36 | drug sensitivity score (HEK293sieSTAT3(wt) [3]): 2.37 | drug sensitivity score (HEK293sieSTAT3(Y640F) [4]): 0
